{"source": "patent US20140017790A1", "about": "“CONTROL AGENT FOR CONTROLLING UNDIFFERENTIATED STATE AND USE THEREOF” (RIKEN, priority 2011, published 2014)", "format_in_all_cases": "cell-based", "key": {"[1]": {"tested_on": "mouse iPS cells", "experiment": "siRNA knockdown and quantitative RT-PCR in mouse iPS cells", "procedure": "A PrimeScript RT-PCR Kit (trade name, TAKARA BIO INC.), an ABI 7500 Fast real time PCR system (trade name, Applied BioSystems), and a SYBR (registered trademark) Premix Ex Taq (trade name, TAKARA BIO INC.) were used in accordance with their protocols. PCR was carried out by conducting 40 cycles of treatment with a treatment at 94° C. for 5 second and at 62.5° C. for 20 seconds as 1 cycle. The expression level of each gene was calculated by normalizing the relative amount of mRNA in the gene to Gapdh mRNA according to the 2^−ΔΔ^CT method (Thomse R, Solvsten C A, Linnet T E, et al., Analysis of qPCR data by converting exponentially related Ct values into linearly related XO values. J Bioinform Comput Biol 2010: 8: 885-900.). […]\nThe Stealth siRNA was added so that the final concentration thereof per well was […]. Then, 24 hours after the transfection, total RNAs were extracted, and the expression levels of the undifferentiated marker genes and the Ccl2 gene in the mouse iPS cells were determined by the quantitative RT-PCR.\nAlso, as a negative control, the mouse iPS cells were subjected to transfection in the same manner as in the above, except that Stealth siRNA (trade name: Stealth RNAi (registered trademark) Negative Control Medium GC, Duplex-catalog number 12935-300, Invitrogen) was used, and the expressions of the undifferentiated marker genes were measured (n=3). […]"}, "[2]": {"tested_on": "human iPS cells", "experiment": "phase-contrast morphology of human iPS cells with JAK or PI3K inhibitor", "conditions": "6 days", "procedure": "As a JAK inhibitor, a JAK inhibitor I (Merck) was used. As PI3K inhibitor, the same LY294002 as used in Example 4 was used. Human iPS cells were cultured for 6 days under feeder conditions in the same manner as in the above item (1), except that not only the CCL2 but also the JAK inhibitor or the PI3K inhibitor further was added to the medium. In the medium, the concentration of the Jak inhibitor was set to 10 ng/ml, and the concentration of the PI3K inhibitor was set to 5 ng/ml.\nFurthermore, as a control, the cells were cultured in the same manner as in the above using the following media, respectively: a medium containing bFGF instead of the CCL2 and containing DMSO (5 ng/ml) instead of the inhibitor; and a medium containing bFGF (5 ng/ml) instead of the CCL2 and containing the inhibitor.\nThe phase-contrast micrographs show the results obtained under the conditions of, from the above: the inhibitor not added (DMSO added); the JAK inhibitor added; and the PI3K inhibitor added."}, "[3]": {"tested_on": "human iPS cells", "experiment": "differentiation of EBs to myocardial cells, morphology and Tropomyosin immunostaining", "conditions": "10th day from the plating; CCL2(+)/LIF(+) or CCL2(-)/bFGF(+) 5 ng/ml", "source_text": "It has been reported that, in general, according to the spontaneous differentiation-inducing method used in the above item (1), differentiation into myocardial cells is more liable to occur. Thus, regarding the cells on the 10th day from the plating in the above item (1), differentiation into myocardial cells was examined.\nThe morphology of the cells was examined with a microscope. Furthermore, they were immunostained with a Tropomyosin, which is a marker for myocardial cells. Also, culture of the cells, observation of the morphology, and staining were carried out in the same manner as in the above using a medium to which bFGF (5 ng/ml) has been added instead of the CCL2 and LIF.\nThe photographs in FIG. 19 show the morphologies of the cells on the 10th day from the plating of EB. […] Furthermore, in FIGS. 19A and 19B, the photographs on the left show the cell morphologies, and the photographs on the right show the stained cells. In the black and white photographs of FIG. 19, the stained portions are seen as light gray."}, "[4]": {"tested_on": "human iPS cells", "experiment": "culture of human iPS cells in feeder free media, EB plating, cell adhesion", "conditions": "LIF not added, CCL2 500 ng/ml alone or bFGF 5 ng/ml alone", "source_text": "As undifferentiated cells, the same human iPS cells as used in Example 7 were used. As CCL2, the mouse recombinant CCL2 used in the item (1) of Example 2 was used. As feeder free media, the following three kinds of media were provided by adding or not adding the CCL2, LIF and bFGF to the medium for human stem cells used in Example 8. Specifically, the media used were as follows: the medium with CCL2 not added (−)/LIF not added (−)/bFGF added (+); the medium with CCL2 added (+)/LIF not added (−)/bFGF not added (−); and the medium with CCL2 added (+)/LIF added (+)/bFGF not added (−). In each medium, the concentration of the LIF was set to 50 units/ml, the concentration of the CCL2 was set to 500 ng/ml, and the concentration of the bFGF was set to 5 ng/ml. Then, the human iPS cells were cultured for 6 days using each medium, and EBs were produced. Thereafter, the thus-produced EBs were seeded in gelatin coated dishes so that each gelatin coated dish contained one EB, and cultured for 5 days in a medium (DMEM) containing 20% FBS.\nThe photographs in FIG. 20 show the cell morphologies of the EBs on the 5th day from the plating."}, "[5]": {"tested_on": "human iPS cells", "experiment": "EB formation and spontaneous differentiation, cell morphology", "conditions": "third day from the plating; iPS cells precultured 6 days with the substance", "procedure": "Human iPS cells were cultured for 6 days under feeder conditions in the same manner as in Example 7. Thereafter, embryonic bodies (EBs) were produced. EB formation is known as a spontaneous differentiation-inducing method for inducing the differentiation of iPS cells. Specifically, first, a ROCK inhibitor (Y-27632, WAKO) was added to the culture solution being used for the culture of the human iPS cells so that the concentration thereof was […], and the human iPS cells were cultured for 1 hour under the conditions of 37° C. and 5% CO2. Then, the feeder cells used for the culture were dissociated with a human ES/iPS cell dissociation solution (CTK solution), and the human iPS cells were collected. Then, 1×10^6 of the human iPS cells were seeded in an ultra-low adhesion culture vessel, and cultured for 6 days in an EB preparation medium (DMEM/F12, Knockout SR, L-glutamine, NEAA (non-essential amino acid (GIBCO)), 2-ME, Pen/Strep). The medium was replaced every two days.\nNext, spontaneous differentiation was induced. Specifically, the produced EBs were seeded in gelatin coated dishes so that each gelatin coated dish contained one EB. Each EB was cultured for 14 days in a medium (DMEM) containing 20% FBS, and then observed with a microscope. The medium was replaced every two days. The photographs in FIG. 18 show the cell morphology on the third day from the plating."}, "[6]": {"tested_on": "human iPS cells", "experiment": "quantitative RT-PCR of undifferentiated marker genes in human iPS cells under feeder conditions", "conditions": "CCL2 500 ng/ml, 6 days, relative to bFGF 5 ng/ml", "procedure": "A PrimeScript RT-PCR Kit (trade name, TAKARA BIO INC.), an ABI 7500 Fast real time PCR system (trade name, Applied BioSystems), and a SYBR (registered trademark) Premix Ex Taq (trade name, TAKARA BIO INC.) were used in accordance with their protocols. PCR was carried out by conducting 40 cycles of treatment with a treatment at 94° C. for 5 second and at 62.5° C. for 20 seconds as 1 cycle. The expression level of each gene was calculated by normalizing the relative amount of mRNA in the gene to Gapdh mRNA according to the 2^−ΔΔ^CT method (Thomse R, Solvsten C A, Linnet T E, et al., Analysis of qPCR data by converting exponentially related Ct values into linearly related XO values. J Bioinform Comput Biol 2010: 8: 885-900.).\nThe human iPS cells were used as undifferentiated cells, and human recombinant CCL2 (137-13011, WAKO, SEQ ID NO: 1) was used as the CCL2. The medium used was a medium for human stem cells (trade name “Primate ES medium”, ReproCELL Incorporated). To this medium, LIF was not added, and the CCL2 was added. The concentration of the CCL2 in the medium was set to 500 ng/ml. Under the above-described feeder conditions, the human iPS cells were cultured on the feeder cells SNL76/7 that produce LIF in the above-described medium. Then, 6 days after the start of the culture, the feeder cells were removed, and total RNAs were collected from the cultured human iPS cells. The undifferentiated marker genes were then subjected to the quantitative RT-PCR.\nAlso, as a negative control, the human iPS cells were cultured under the feeder conditions and the undifferentiated marker genes were subjected to quantitative RT-PCR in the same manner as in the above, except that bFGF (derived from human, WAKO) was added instead of the CCL2 so that the concentration thereof was 5 ng/ml. Thereafter, assuming that the expression level in the comparative example was 1, the relative value with respect to this value was calculated as the fold change in expression level."}}, "data": [{"compound": "siRNA against the Klf4 gene: Stealth siRNA (Invitrogen), sequence SEQ ID NO: 8 CAAGUUUGUGCUGAAGGCGUCUCUG (commercial Stealth siRNA, chemistry not given here)", "values": [{"measurement": "expression of the Tbx3 gene after knockdown of the Klf4 gene", "setting": "[1]; 24 hours, relative to negative control", "value": "decreased markedly"}]}, {"compound": "CC(C)(C)c1nc2c3cc[nH]c(=O)c3c3cc(F)ccc3c2[nH]1", "note": "[Jak inhibitor, reference compound]", "values": [{"measurement": "undifferentiation potency, cell morphology", "setting": "[2]; Jak inhibitor 10 ng/ml, both bFGF(+)/CCL2(-) and bFGF(-)/CCL2(+)", "value": "all the cells had been differentiated and many dead cells were observed"}]}, {"compound": "bFGF: bFGF (derived from human, WAKO), added instead of the CCL2 as negative control", "values": [{"measurement": "cell morphology of EBs, differentiation into myocardial cells", "setting": "[3]", "value": "most of them were epithelial cell-like cells"}, {"measurement": "staining with Tropomyosin (marker for myocardial cells)", "setting": "[3]", "value": "not stained"}, {"measurement": "cell adhesion", "setting": "[4]", "value": "not observed"}, {"measurement": "morphology of EB after spontaneous differentiation-inducing culture", "setting": "[5]", "value": "epithelial cell-like morphology"}, {"measurement": "undifferentiation potency, cell morphology", "setting": "[2]; inhibitor not added (DMSO added), bFGF(+)/CCL2(-) or bFGF(-)/CCL2(+)", "value": "most of the cells maintained the undifferentiation potency, but some of the cells were differentiated"}]}, {"compound": "human recombinant CCL2: human recombinant CCL2 (137-13011, WAKO, SEQ ID NO: 1)", "values": [{"measurement": "expression of the KLF4 gene, fold change", "setting": "[6]", "value": "about two-fold"}, {"measurement": "expression of the Nanog gene, fold change", "setting": "[6]", "value": "about two-fold"}, {"measurement": "expression of the REX1 gene, fold change", "setting": "[6]", "value": "about two-fold"}, {"measurement": "expression of the STELLA gene, fold change", "setting": "[6]", "value": "about two-fold"}]}, {"compound": "siRNA against the Ccl2 gene: Stealth siRNA (Invitrogen), sequence SEQ ID NO: 7 CAUUCACCAGCAAGAUGAUCCCAAU (commercial Stealth siRNA, chemistry not given here)", "values": [{"measurement": "expressions of the undifferentiated marker genes (Klf4, Tbx3) after knockdown of the Ccl2 gene", "setting": "[1]; 24 hours after transfection, relative to negative control siRNA", "value": "decreased markedly"}]}]}
